# Reference: article PMC11045757, “Group 3 medulloblastoma transcriptional networks collapse under domain specific EP300/CBP inhibition” (Nature Communications, 2024)
# System: 460 barcoded cancer cell lines
# Assay: PRISM pooled barcoded cancer cell line growth screen, 10-point dose-response, 5 days, AUC
# Assay type: cell-based
# Parameters: scale not given here
# Description: Several small molecule inhibitors of distinct protein domains of EP300/CBP are available, though the majority target the histone acetyltransferase domain (HAT) or bromodomain (BRD)[5],[10],[21],[22]. […] We used these tools to investigate the relative contribution of the EP300/CBP BRD or HAT domain to tumor cell growth (Fig. 1a). To do so, we performed 10-point, dose-response growth assays using mixed pools of 460 barcoded cancer cell lines, over five days of treatment in vitro[33],[34]. Growth was measured using an area-under-the-curve (AUC) approach (Supplementary Table 1, Supplementary Fig. 1a). […] Given potential differences in compound penetration and solubility, and to compare the relative cell line and tumor-specific effects of these two compounds in assays performed non-simultaneously, we performed a median normalization of each dataset (Supplementary Table 2).
smiles,measurement,setting,value
CNC(=O)Nc1ccc2c(c1)CCC21OC(=O)N(CC(=O)N(Cc2ccc(F)cc2)C(C)C(F)(F)F)C1=O (centres unmarked) [Compound A485],AUC,"MG63, Osteosarcoma",0.9115
same,AUC,"MHHES1, Ewing Sarcoma",0.4553
same,AUC,"MHHNB11, Neuroblastoma",0.7182
same,AUC,"MIAPACA2, Pancreatic Cancer",0.9009
same,AUC,"MKN1, Gastric Cancer",0.9671
same,AUC,"MKN7, Gastric Cancer",0.9501
same,AUC,"MKN45, Gastric Cancer",0.5235
same,AUC,"MOLM13, AML",0.5776
same,AUC,"MOLM16, AML",1
same,AUC,"MOLT3, T-acute leukemia",0.8162
same,AUC,"MOLT16, T-acute leukemia",0.9273
same,AUC,"MON, Rhabdoid",0.6327
same,AUC,"NB1, Neuroblastoma",0.493
same,AUC,"NB4, AML",1
same,AUC,"NCIH23, Lung Cancer",0.8307
same,AUC,"NCIH28, Lung Cancer",0.8488
same,AUC,"NCIH82, Lung Cancer",1
same,AUC,"NCIH196, Lung Cancer",0.825
same,AUC,"NCIH211, Lung Cancer",0.6824
same,AUC,"NCIH226, Lung Cancer",0.8402
same,AUC,"NCIH292, Lung Cancer",0.7841
same,AUC,"NCIH322, Lung Cancer",0.7616
same,AUC,"NCIH358, Lung Cancer",0.8611
same,AUC,"NCIH441, Lung Cancer",0.8818
same,AUC,"NCIH460, Lung Cancer",0.9648
same,AUC,"NCIH520, Lung Cancer",0.9521
same,AUC,"NCIH524, Lung Cancer",0.8317
same,AUC,"NCIH596, Lung Cancer",0.8954
same,AUC,"NCIH647, Lung Cancer",1
same,AUC,"NCIH650, Lung Cancer",0.8159
same,AUC,"NCIH661, Lung Cancer",0.6677
same,AUC,"NCIH747, Colon/Colorectal Cancer",0.838
same,AUC,"NCIH841, Lung Cancer",0.8663
same,AUC,"NCIH1048, Lung Cancer",0.8631
same,AUC,"NCIH1299, Lung Cancer",0.8424
same,AUC,"NCIH1341, Lung Cancer",1
same,AUC,"NCIH1373, Lung Cancer",0.7413
same,AUC,"NCIH1437, Lung Cancer",0.6724
same,AUC,"NCIH1568, Lung Cancer",0.921
same,AUC,"NCIH1573, Lung Cancer",0.8005
same,AUC,"NCIH1581, Lung Cancer",0.7694
same,AUC,"NCIH1648, Lung Cancer",0.776
same,AUC,"NCIH1792, Lung Cancer",0.691
same,AUC,"NCIH1793, Lung Cancer",0.7572
same,AUC,"NCIH1838, Lung Cancer",0.8275
same,AUC,"NCIH1930, Lung Cancer",1
same,AUC,"NCIH1944, Lung Cancer",0.8729
same,AUC,"NCIH1975, Lung Cancer",0.8115
same,AUC,"NCIH2004RT, Rhabdoid",0.9741
same,AUC,"NCIH2052, Lung Cancer",0.6997
same,AUC,"NCIH2122, Lung Cancer",0.4802
same,AUC,"NCIH2170, Lung Cancer",0.9434
same,AUC,"NCIH2172, Lung Cancer",0.8484
same,AUC,"NCIH2196, Lung Cancer",0.8734
same,AUC,"NCIH2228, Lung Cancer",0.7811
same,AUC,"NCIH2347, Lung Cancer",0.6039
same,AUC,"NCIH2444, Lung Cancer",0.8316
same,AUC,"NCO2, CML",0.8351
same,AUC,"NIHOVCAR3, Ovarian Cancer",0.9964
same,AUC,"NUDHL1, Lymphoma",0.9213
same,AUC,"NUGC3, Gastric Cancer",0.8775
same,AUC,"OAW42, Ovarian Cancer",0.7266
same,AUC,"OC314, Ovarian Cancer",0.891
same,AUC,"OC316, Ovarian Cancer",0.9187
same,AUC,"OCIAML2, AML",0.6159
same,AUC,"OCIAML3, AML",0.7819
same,AUC,"OCILY19, Lymphoma",0.6711
same,AUC,"OCILY132, T-cell lymphoma",0.9357
same,AUC,"OCIM1, AML",0.6185
same,AUC,"OE19, Esophageal Cancer",0.9392
same,AUC,"OE21, Esophageal Cancer",0.6998
same,AUC,"ONCODG1, Ovarian Cancer",0.9734
same,AUC,"ONS76, Medulloblastoma",0.7969
same,AUC,"OSRC2, Kidney Cancer",0.9758
same,AUC,"OV56, Ovarian Cancer",0.9822
same,AUC,"OVCAR8, Ovarian Cancer",0.8889
same,AUC,"OVISE, Ovarian Cancer",0.951
same,AUC,"OVK18, Ovarian Cancer",0.5397
same,AUC,"OVKATE, Ovarian Cancer",0.8663
same,AUC,"OVTOKO, Ovarian Cancer",0.8262
same,AUC,"PANC0203, Pancreatic Cancer",0.6928
same,AUC,"PANC0327, Pancreatic Cancer",0.889
same,AUC,"PANC0403, Pancreatic Cancer",0.6894
same,AUC,"PANC0504, Pancreatic Cancer",0.8448
same,AUC,"PANC0813, Pancreatic Cancer",0.8655
same,AUC,"PATU8902, Pancreatic Cancer",0.9465
same,AUC,"PC3, Prostate Cancer",0.8494
same,AUC,"PECAPJ15, Head and Neck Cancer",0.6653
same,AUC,"PF382, T-acute leukemia",0.7674
same,AUC,"PK1, Pancreatic Cancer",0.6974
same,AUC,"PK59, Pancreatic Cancer",0.9772
same,AUC,"PSN1, Pancreatic Cancer",0.6172
same,AUC,"RCM1, Colon/Colorectal Cancer",0.8245
same,AUC,"RD, Rhabdomyosarcoma",0.8188
same,AUC,"RDES, Ewing Sarcoma",0.6507
same,AUC,"RERFLCAI, Lung Cancer",0.874
same,AUC,"RERFLCKJ, Lung Cancer",0.7393
same,AUC,"RH4, Rhabdomyosarcoma",0.678
same,AUC,"RH28, Rhabdomyosarcoma",1
same,AUC,"RH36, Rhabdomyosarcoma",1
same,AUC,"RHJT, Rhabdomyosarcoma",1
same,AUC,"RI1, B-cell Lymphoma",0.6781
same,AUC,"RL952, Endometrial/Uterine Cancer",0.946
same,AUC,"RL, B-cell Lymphoma",0.7056
same,AUC,"RPMI8402, T-acute leukemia",0.6488
same,AUC,"RT4, Bladder Cancer",0.8068
same,AUC,"RVH421, Melanoma",0.6261
same,AUC,"S117, Thyroid Sarcoma",0.733
same,AUC,"SAOS2, Osteosarcoma",0.6843
same,AUC,"SCABER, Bladder Cancer",0.7254
same,AUC,"SCC9, Head and Neck Cancer",0.6982
same,AUC,"SCC25, Head and Neck Cancer",0.8637
same,AUC,"SCLC21H, Lung Cancer",0.7482
same,AUC,"SEM, B-cell Leukemia",0.591
same,AUC,"SF539, Glioma",0.7626
same,AUC,"SH4, Melanoma",0.7491
same,AUC,"SH10TC, Gastric Cancer",0.9483
same,AUC,"SHP77, Lung Cancer",1
same,AUC,"SIMA, Neuroblastoma",0.7689
same,AUC,"SJSA1, Osteosarcoma",0.6938
same,AUC,"SKES1, Ewing Sarcoma",0.5686
same,AUC,"SKHEP1, Liver Cancer",0.9176
same,AUC,"SKM1, AML",0.6691
same,AUC,"SKMEL30, Melanoma",0.8035
same,AUC,"SKMES1, Lung Cancer",0.6858
same,AUC,"SKMM2, Myeloma",0.9139
same,AUC,"SKNAS, Neuroblastoma",0.7465
same,AUC,"SKNBE2, Neuroblastoma",0.711
same,AUC,"SKNDZ, Neuroblastoma",0.8727
same,AUC,"SKNEP1, Ewing Sarcoma",0.6902
same,AUC,"SKNMC, Ewing Sarcoma",0.8779
same,AUC,"SKNO1, AML",0.8126
same,AUC,"SKNSH, Neuroblastoma",0.7441
same,AUC,"SKOV3, Ovarian Cancer",0.768
same,AUC,"SKUT1, Leiomyosarcoma",0.8397
same,AUC,"SNU1, Gastric Cancer",1
same,AUC,"SNU46, Head and Neck Cancer",0.6485
same,AUC,"SNU61, Colon/Colorectal Cancer",0.8187
same,AUC,"SNU81, Colon/Colorectal Cancer",0.8344
same,AUC,"SNU182, Liver Cancer",0.5802
same,AUC,"SNU201, Glioblastoma",0.8259
same,AUC,"SNU213, Pancreatic Cancer",0.8601
same,AUC,"SNU216, Gastric Cancer",0.8096
same,AUC,"SNU245, Bile Duct Cancer",0.7564
same,AUC,"SNU398, Liver Cancer",0.8358
same,AUC,"SNU407, Colon/Colorectal Cancer",0.7333
same,AUC,"SNU423, Liver Cancer",0.7846
same,AUC,"SNU449, Liver Cancer",0.9343
same,AUC,"SNU466, Glioblastoma",0.8159
same,AUC,"SNU478, Bile Duct Cancer",0.7556
same,AUC,"SNU601, Gastric Cancer",0.8298
same,AUC,"SNU668, Gastric Cancer",0.8689
same,AUC,"SNU685, Endometrial/Uterine Cancer",0.8766
same,AUC,"SNU719, Gastric Cancer",0.9255
same,AUC,"SNU869, Bile Duct Cancer",0.9315
same,AUC,"SNU878, Liver Cancer",0.7163
same,AUC,"SNU886, Liver Cancer",0.7207
same,AUC,"SNU1041, Head and Neck Cancer",0.836
same,AUC,"SNU1066, Head and Neck Cancer",0.7809
same,AUC,"SNU1076, Head and Neck Cancer",0.7922
same,AUC,"SNU1077, Endometrial/Uterine Cancer",0.8978
same,AUC,"SNU1079, Bile Duct Cancer",0.8976
same,AUC,"SNU1105, Glioblastoma",0.823
same,AUC,"SNU1196, Bile Duct Cancer",0.8191
same,AUC,"SNU1214, Head and Neck Cancer",0.7713
same,AUC,"SNUC2A, Colon/Colorectal Cancer",1
same,AUC,"SNUC4, Colon/Colorectal Cancer",0.6416
same,AUC,"SQ1, Lung Cancer",0.8347
same,AUC,"SR786, Lymphoma",0.6609
same,AUC,"STM9101, Rhabdoid",0.89
same,AUC,"SUDHL8, Lymphoma",0.5295
same,AUC,"SW48, Colon/Colorectal Cancer",1
same,AUC,"SW579, Thyroid Cancer",0.7659
same,AUC,"SW620, Colon/Colorectal Cancer",0.9454
same,AUC,"SW780, Bladder Cancer",0.7867
same,AUC,"SW837, Colon/Colorectal Cancer",0.675
same,AUC,"SW900, Lung Cancer",0.774
same,AUC,"SW948, Colon/Colorectal Cancer",0.5667
same,AUC,"SW1088, Glioma",0.7952
same,AUC,"SW1116, Colon/Colorectal Cancer",0.9547
same,AUC,"SW1463, Colon/Colorectal Cancer",0.6958
same,AUC,"SW1710, Bladder Cancer",0.7157
same,AUC,"T3M10, Lung Cancer",0.9036
same,AUC,"T24, Bladder Cancer",0.9232
same,AUC,"T47D, Breast Cancer",0.9704
same,AUC,"TALL1, T-acute leukemia",0.6985
same,AUC,"TC71, Ewing Sarcoma",0.9262
same,AUC,"TC106, Ewing Sarcoma",0.5807
same,AUC,"TC205, Ewing Sarcoma",0.554
same,AUC,"TCCPAN2, Pancreatic Cancer",0.884
same,AUC,"TCCSUP, Bladder Cancer",0.8481
same,AUC,"TE1, Esophageal Cancer",0.8516
same,AUC,"TE4, Esophageal Cancer",0.8986
same,AUC,"TE5, Esophageal Cancer",0.8355
same,AUC,"TE6, Esophageal Cancer",0.6845
same,AUC,"TE9, Esophageal Cancer",0.9819
same,AUC,"TE10, Esophageal Cancer",0.7055
same,AUC,"TE11, Esophageal Cancer",0.5915
same,AUC,"TE15, Esophageal Cancer",0.6898
same,AUC,"TE617T, Rhabdomyosarcoma",0.7575
same,AUC,"TF1, AML",0.4573
same,AUC,"TM87, Rhabdoid",0.6723
same,AUC,"TOLEDO, Lymphoma",0.9051
same,AUC,"TOV21G, Ovarian Cancer",0.8786
same,AUC,"TT2609C02, Thyroid Cancer",0.6078
same,AUC,"TT, Thyroid Cancer",0.6637
same,AUC,"TTC442, Rhabdomyosarcoma",0.8716
same,AUC,"TTC549, Rhabdoid",0.683
same,AUC,"TTC642, Rhabdoid",0.604
same,AUC,"TTC1240, Rhabdoid",0.6274
same,AUC,"TYKNU, Ovarian Cancer",0.7341
same,AUC,"U2OS, Osteosarcoma",0.9217
same,AUC,"U266B1, Myeloma",0.8925
same,AUC,"U937, AML",0.6875
same,AUC,"UACC62, Melanoma",0.717
same,AUC,"UACC257, Melanoma",0.8193
same,AUC,"UBLC1, Bladder Cancer",0.7124
same,AUC,"UMUC1, Bladder Cancer",0.6454
same,AUC,"UW228, Medulloblastoma",1
same,AUC,"VMCUB1, Bladder Cancer",0.6611
same,AUC,"VMRCRCW, Kidney Cancer",0.8987
same,AUC,"VMRCRCZ, Kidney Cancer",0.5968
same,AUC,"WM88, Melanoma",0.5816
same,AUC,"WM793, Melanoma",0.8497
same,AUC,"WM983B, Melanoma",0.7071
same,AUC,"YAPC, Pancreatic Cancer",0.8726
same,AUC,"YD10B, Head and Neck Cancer",0.7608
same,AUC,"YD15, Head and Neck Cancer",0.6259
same,AUC,"YD38, Head and Neck Cancer",0.5959
same,AUC,"YH13, Glioblastoma",0.7751
